In the supplement of paper PMC10307832:

Assays:
Assay in all cases: relative viability (nuclei count vs DMSO), 5 days (fraction); higher = more cells survive
NVP-TAE684 + Pemetrexed = compound: COc1cc(N2CCC(N3CCN(C)CC3)CC2)ccc1Nc1ncc(Cl)c(Nc2ccccc2S(=O)(=O)C(C)C)n1 [NVP-TAE684] + Nc1nc2[nH]cc(CCc3ccc(C(=O)N[C@@H](CCC(=O)O)C(=O)O)cc3)c2c(=O)[nH]1 [Pemetrexed] (partner 0.2 µM)
Procedure, shortened: (§1)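 Relative viability divides the nuclei count in treated wells by that in vehicle wells. Lung cancer cell lines were seeded in 1536-well plates, dosed by pin tool the next day, and fixed and stained after 5 days in one step with final 0.05% Triton X-100, 1% formaldehyde and 1 ug/ml Hoechst. Dosing was a single drug or a fixed anchor-drug dose plus five library-drug doses (not always all listed) in √10 steps, and values are medians of duplicate plates imaged at 4×.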

CUDC-101 + Foretinib = compound: C#Cc1cccc(Nc2ncnc3cc(OC)c(OCCCCCCC(=O)NO)cc23)c1 [CUDC-101] + COc1cc2c(Oc3ccc(NC(=O)C4(C(=O)Nc5ccc(F)cc5)CC4)cc3F)ccnc2cc1OCCCN1CCOCC1 [Foretinib] (partner 0.25 µM)
Procedure, shortened: as §1

Vandetanib = compound: COc1cc2/c(=N/c3ccc(Br)cc3F)nc[nH]c2cc1OCC1CCN(C)CC1 [Vandetanib]
Procedure, shortened: (§2)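 Viability was defined as treated-well nuclei divided by vehicle-well nuclei, with the median taken over replicate plates. Cells from lung cancer lines sat overnight at 37 °C in 1536-well plates, received five √10-spaced library-drug doses by pinning on vehicle-anchored plates, and grew 5 days without medium change before one-step fixation, permeabilisation and Hoechst staining, 4× imaging and MetaXpress nuclear counts. Only plates with control CV under 25% and at least one doubling were kept.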

[1] = compound: C1=CC=C2C(=C1)N=C(S2)C(C#N)C3=NC(=NC=C3)NCCC4=CN=CC=C4
Procedure, shortened: as §2

| Cell Line | relative viability (NVP-TAE684 + Pemetrexed; first compound 0.2 µM) | relative viability (NVP-TAE684 + Pemetrexed; first compound 0.6325 µM) | relative viability (NVP-TAE684 + Pemetrexed; first compound 2 µM) | relative viability (CUDC-101 + Foretinib; first compound 0.01 µM) | relative viability (CUDC-101 + Foretinib; first compound 0.03162 µM) | relative viability (CUDC-101 + Foretinib; first compound 0.1 µM) | relative viability (CUDC-101 + Foretinib; first compound 0.3162 µM) | relative viability (CUDC-101 + Foretinib; first compound 1 µM) | relative viability (Vandetanib; 0.02 µM) | relative viability (Vandetanib; 0.06325 µM) | relative viability (Vandetanib; 0.2 µM) | relative viability (Vandetanib; 0.6325 µM) | relative viability (Vandetanib; 2 µM) | relative viability ([1]; 0.005 µM) | relative viability ([1]; 0.01581 µM) | relative viability ([1]; 0.05 µM) | relative viability ([1]; 0.1581 µM) | relative viability ([1]; 0.5 µM) |
| --- | --- | --- | --- | --- | --- | --- | --- | --- | --- | --- | --- | --- | --- | --- | --- | --- | --- | --- |
| 201T | 0.334 | 0.332 | 0.323 | 1.11 | 0.835 | 1.03 | 1.28 | 0.936 | 0.951 | 0.951 | 1.01 | 0.934 | 0.941 | 0.963 | 0.876 | 1.01 | 1.03 | 0.89 |
| A549 | – | – | – | 0.985 | 1 | 0.907 | 1.02 | 0.769 | 1 | 0.894 | 0.913 | 0.907 | 0.922 | 0.914 | 1.03 | 0.969 | 1.05 | 0.901 |
| A-427 | – | 0.914 | 0.788 | 1.01 | 0.975 | 1.01 | 1.06 | 0.877 | 0.955 | 0.963 | 0.953 | 0.98 | 0.96 | 0.993 | 0.875 | 0.919 | 1.15 | 0.95 |
| ABC-1 | – | – | – | 1.04 | 0.797 | 1.07 | 0.704 | 0.519 | 0.827 | 0.917 | 0.844 | 0.908 | 0.628 | 0.974 | 0.826 | 1.08 | 1.07 | 0.835 |
| BEN | 0.843 | 0.728 | 0.682 | 0.822 | 0.547 | 0.804 | 0.581 | 0.648 | 0.941 | 0.916 | 0.886 | 0.933 | 0.988 | 0.864 | 0.908 | 0.97 | 1.04 | 1.08 |
| CAL-12T | 0.973 | 1.16 | 0.492 | 1.11 | 1.06 | 1.18 | 1.16 | 1.16 | 1.07 | 0.909 | 0.954 | 0.885 | 0.729 | 1 | 0.912 | 0.962 | 1.07 | 0.798 |
| COR-L23 | 0.205 | 0.203 | 0.197 | 1.12 | 0.947 | 0.924 | 0.96 | 0.494 | 0.974 | 0.93 | 1.02 | 1.08 | 1.06 | 0.944 | 1.13 | 1.05 | 1.2 | 0.884 |
| COR-L 105 | 1.01 | 0.98 | – | 0.941 | 0.987 | 0.951 | 0.793 | 0.527 | 0.936 | 0.875 | 0.911 | 0.641 | 0.457 | 0.8 | 0.711 | 0.774 | 0.941 | 0.768 |
| Calu-6 | – | – | – | 0.932 | 0.857 | 0.878 | 0.823 | 0.714 | 0.958 | 0.946 | 1.02 | 0.988 | 0.95 | 0.999 | 0.983 | 0.978 | 1.12 | 0.912 |
| ChaGo-K-1 | 0.273 | 0.246 | 0.264 | 0.916 | 0.875 | 0.945 | 0.894 | 0.709 | 1.01 | 1.01 | 1.01 | 0.998 | 0.984 | 0.984 | 0.929 | 0.99 | 1.05 | 0.939 |
| EBC-1 | – | – | – | 0.0994 | 0.109 | 0.109 | 0.0873 | 0.0665 | 0.93 | 0.959 | 1.07 | 1.09 | 1.03 | 1.02 | 1.15 | 0.803 | 1.06 | 0.858 |
| EKVX | 0.376 | 0.337 | 0.254 | 0.976 | 0.639 | 0.681 | 1.18 | 0.859 | 1 | 0.928 | 0.925 | 0.773 | 0.608 | 1.08 | 0.939 | 0.947 | 1.04 | 0.952 |
| EMC-BAC-2 | 0.429 | 0.405 | 0.433 | 1.12 | 0.982 | 0.954 | 1.03 | 0.56 | 1.03 | 0.981 | 0.929 | 1.02 | 0.918 | 1.09 | 0.976 | 0.952 | 1.04 | 0.97 |
| EPLC-272H | 0.425 | 0.297 | 0.15 | 0.664 | 0.723 | 0.646 | 0.341 | 0.585 | 0.941 | 0.834 | 0.975 | 0.941 | 0.923 | 0.915 | 0.882 | 0.958 | 1.11 | 0.895 |
| H3255 | 0.531 | 0.519 | 0.449 | 0.864 | 0.917 | – | 0.486 | 0.279 | 0.998 | 0.934 | 0.845 | 0.573 | 0.355 | 1.04 | 0.922 | 0.964 | 1.06 | 0.981 |
| HARA | 0.262 | 0.211 | 0.233 | 0.903 | 0.78 | 0.853 | 0.611 | 0.285 | 1.13 | 0.939 | 0.914 | 0.899 | 0.942 | 1.1 | 0.769 | 0.994 | 1.09 | 0.93 |
| HCC-15 | 0.245 | 0.204 | 0.182 | 1.09 | 0.993 | 0.966 | 1.09 | 0.933 | 1.01 | 0.919 | 0.982 | 1 | 1.03 | 0.96 | 0.989 | 1.03 | 1.12 | 0.919 |
| HCC-44 | 0.652 | – | 0.606 | – | – | – | – | – | 0.939 | 0.965 | 1.02 | 0.998 | 0.966 | 0.999 | 1.03 | 1.04 | 1.05 | 1 |
| HCC-78 | 0.886 | 0.912 | 0.93 | 0.549 | 0.56 | 0.543 | 0.494 | 0.268 | 1.02 | 0.841 | 0.958 | 0.974 | 0.853 | 1.08 | 0.92 | 1.07 | 1.07 | 0.996 |
